{"source": "paper PMC8920107", "about": "(ADMET & DMPK, 2020)", "key": {"[1]": {"parameters": "method as in PMID 11472245", "settings": "calibration set of compounds, predefined values; cited from earlier work"}, "[2]": {"assay": "Phospholipid binding at pH 7.4 on Immobilized Artificial Membrane (IAM) HPLC column", "format": "physicochemical", "settings": "pH 7.4, standard 6 min protocol", "protocol": "The phospholipid-binding was measured using an IAM PC.DD2 column with dimensions of 100 x 4.6 mm (Regis Technologies Inc., Morton Grove, IL, USA). The gradient retention times of the compounds were measured using a 50 mM ammonium acetate starting mobile phase with the pH adjusted to 7.4. The mobile phase flow rate was 1.5 mL/min. […] The cycle time was 6 min plus an additional 1 min equilibration time was applied while the injector prepared for the next injection. The gradient retention times were calibrated with the acetophenone homologues for which the CHI IAM values have been established using isocratic measurements [26]. The Chromatographic Hydrophobicity Index on the IAM column [CHI(IAM)] approximates to the acetonitrile concentration in the mobile phase when the compound elutes. CHI(IAM) values above 45 indicate strong phospholipid binding. Repeating the retention time measurements provided the error only in the third digit of the minute (±0.005)."}, "[3]": {"molecular_target": "human serum albumin (HSA) (Homo sapiens, UniProt P02768)", "sequence (P02768 25-609)": "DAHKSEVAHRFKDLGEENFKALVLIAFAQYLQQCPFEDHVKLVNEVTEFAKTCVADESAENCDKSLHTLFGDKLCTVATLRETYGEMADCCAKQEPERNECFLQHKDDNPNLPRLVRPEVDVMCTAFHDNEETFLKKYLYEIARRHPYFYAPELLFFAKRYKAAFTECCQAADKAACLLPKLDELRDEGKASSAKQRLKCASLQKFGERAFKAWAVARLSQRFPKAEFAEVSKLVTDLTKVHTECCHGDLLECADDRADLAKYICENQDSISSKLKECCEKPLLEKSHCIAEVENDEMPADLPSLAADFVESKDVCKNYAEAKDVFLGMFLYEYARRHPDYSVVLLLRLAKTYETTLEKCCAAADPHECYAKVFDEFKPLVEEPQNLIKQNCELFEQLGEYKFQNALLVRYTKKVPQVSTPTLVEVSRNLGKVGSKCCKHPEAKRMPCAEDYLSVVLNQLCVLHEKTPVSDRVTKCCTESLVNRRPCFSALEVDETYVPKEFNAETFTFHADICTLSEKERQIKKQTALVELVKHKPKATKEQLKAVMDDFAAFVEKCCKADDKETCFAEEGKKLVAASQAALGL", "assay": "Albumin binding by biomimetic HPLC on Chiralpak HSA column", "settings": "for fraction unbound: human, Chiralpak HSA HPLC column (immobilised human serum albumin), pH 7.4; for % HSA bound: standard 6 min IPA gradient up to 35 %, pH 7.4, racemate; for log k (HSA): standard 6 min IPA gradient, racemate", "procedure": "(§1) The protein binding measurements were carried out on Chiralpak HSA and Chiralpak AGP columns with the dimensions of 3 x 50 mm with 5 um particle size stationary phase (Chiril Technologies Europe, France). The mobile phase was 50 mM ammonium acetate adjusted to pH 7.4 with a flow rate of 1.2 mL/min. […] The cycle time was 6 min with an additional 1 min re-equilibration time.\n(§2) The cycle time was 8 min plus an additional 1 min re-equilibration time."}, "[4]": {"system": "α-1-acid-glycoprotein (AGP)", "assay": "Glycoprotein binding by biomimetic HPLC on Chiralpak AGP column", "settings": "for % AGP bound: standard 6 min IPA gradient up to 35 %, pH 7.4, racemate", "procedure": "as §1, §2"}, "[5]": {"assay": "Human plasma protein binding by rapid equilibrium dialysis (RED)", "format": "in vitro ADME", "settings": "100 % pooled human plasma, pH 7.4, 37 °C", "procedure": "The test compounds were prepared in 100 % pooled human plasma. The measurement was performed using equilibrium dialysis with the two compartments separated by a semi-permeable membrane. The plasma solution was added to one side of the membrane while buffer (pH 7.4) was added to the other side. The system was allowed to reach equilibrium at 37 °C. Compound concentration on both sides of the membrane was measured by LC-MS/MS, and the fraction of unbound compound calculated. Calibration standards were prepared in plasma and buffer. Test compound incubations were performed in triplicate. A control compound was included in each experiment. The solutions for each batch of compounds were combined into two groups (protein-free and protein-containing). Cassette analysed by LC-MS/MS using two sets of calibration standards for protein-free solutions (7 points) and protein-containing solutions (7 points). The experiments were carried out at Cyprotex Discovery Ltd (UK) and repeated at Sygnature Discovery Ltd (UK) laboratories using their generic LC/MS method. The unbound fraction (fu) is calculated from the concentration of the test compound in the protein-containing side Cp and the protein-free side Cf based on the formula: […]"}, "[6]": {"assay": "Estimated total plasma protein binding from biomimetic HPLC data (model equation)", "settings": "from % HSA, % AGP and lipophilicity, standard 6 min protocol; for fraction unbound: human, read-out: Estimated % plasma protein binding (PPB) (converted)", "excerpt": "(§3) Thus, the regression coefficients in linear regression analysis are meaningful and reflect to the physiological proportion of the albumin and phospholipids in the body. […] They are based on the calibrated retention times obtained on C-18, IAM, Chiralpak HSA and Chiralpak AGP columns."}, "[7]": {"assay": "Estimated brain tissue binding and brain to blood ratio from biomimetic HPLC data (model equations)", "settings": "standard 6 min protocol data; for %BTB: brain tissue binding; for Kp at 0.1 h: read-out: Brain to plasma", "excerpt": "as §3"}, "[8]": {"assay": "Estimated lung tissue binding from biomimetic HPLC data (model equation)", "settings": "standard 6 min protocol data", "excerpt": "as §3"}, "[9]": {"assay": "Estimated volume of distribution, unbound volume of distribution and drug efficiency from biomimetic HPLC data", "settings": "standard 6 min protocol data", "excerpt": "as §3"}, "[10]": {"settings": "cited from earlier work"}, "[11]": {"settings": "cited from earlier work", "remark": "listed apart in the source"}, "[12]": {"system": "AGP", "settings": "cited from earlier work; for % AGP: calibration drugs, equilibrium dialysis literature % binding"}, "[13]": {"settings": "both in animals and in human; cited from earlier work"}, "[14]": {"system": "HSA"}, "[15]": {"system": "HSA", "settings": "cited from earlier work"}, "[16]": {"system": "AGP", "assay": "Literature AGP binding by equilibrium dialysis"}, "[17]": {"assay": "Chromatographic Hydrophobicity Index (CHI) lipophilicity at three pHs, C-18 gradient HPLC", "format": "physicochemical", "procedure": "Gemini NX C-18(2) 5 um columns with dimensions of 3 x 50 mm (Phenomenex Ltd. Macclesfield, UK) were used for the determination of the Chromatographic Hydrophobicity Index (CHI) and the CHIlogD values. […] An acetonitrile linear gradient was used from 0 to 100 %. The acetonitrile concentration reached 100 % in 3.5 min. The 100 % acetonitrile mobile phase was maintained for an additional 1 min before it was returned to 0 % at 4.7 min. The cycle time of the gradient run was 6 min, with an additional equilibration time of 1 min before the next injection. The error in the retention time measurements is ±0.005 min in general after repeated injections."}, "[18]": {"assay": "Estimated cell partition coefficient from IAM binding (model equation)", "settings": "standard 6 min protocol data", "excerpt": "as §3"}, "[19]": {"assay": "Phospholipidotic potential (CAD-likeness) from CHI values", "settings": "CHI (IAM) + (CHI at pH 10.5 – CHI at pH 7.4)"}}, "note": "Values joined by “and” are separate entries in the source; they are usually repeats but may differ in a detail not shown here. Equal values may be shown once. Read-outs that look alike come from different tables or passages of the source.", "data": [{"smiles": "CC(=O)c1ccccc1", "note": "[Acetophenone]", "values": [{"measurement": "CHI at pH 2.6", "setting": "[1]", "result": 64.1}, {"measurement": "CHI at pH 7.4", "setting": "[1]", "result": 65.1}, {"measurement": "CHI at pH 10.5", "setting": "[1]", "result": 64.1}]}, {"smiles": "c1ccc2[nH]cnc2c1", "note": "[Benzimidazole]", "values": [{"measurement": "CHI at pH 2.6", "setting": "[1]", "result": 6.3}, {"measurement": "CHI at pH 7.4", "setting": "[1]", "result": 34.3}, {"measurement": "CHI at pH 10.5", "setting": "[1]", "result": 30.6}]}, {"smiles": "CCCC(=O)c1ccccc1", "note": "[Butyrophenone]", "values": [{"measurement": "CHI at pH 2.6", "setting": "[1]", "result": 87.3}, {"measurement": "CHI at pH 7.4", "setting": "[1]", "result": 87.5}, {"measurement": "CHI at pH 10.5", "setting": "[1]", "result": 87.3}]}, {"smiles": "CCN(CC)CCCC(C)Nc1ccnc2cc(Cl)ccc12", "note": "(stereo not shown) [CQ, Chloroquine]", "values": [{"measurement": "log k (IAM)", "setting": "[2]", "result": 2.6}, {"measurement": "fraction unbound", "setting": "[3]", "result": 0.178}, {"measurement": "% HSA bound", "setting": "[3]", "result": "87% and 87.6%"}, {"measurement": "log k (HSA)", "setting": "[3]", "result": 0.8}, {"measurement": "% AGP bound", "setting": "[4]", "result": 88.8, "unit": "%"}, {"measurement": "fraction unbound", "setting": "[5]", "result": 0.474}, {"measurement": "Estimated % plasma protein binding (PPB)", "setting": "[6]", "result": 94.8, "unit": "%"}, {"measurement": "fraction unbound", "setting": "[6]", "result": 0.05}, {"measurement": "%BTB", "setting": "[7]", "result": 98.4, "unit": "%"}, {"measurement": "Kp at 0.1 h", "setting": "[7]", "result": 3.4}, {"measurement": "% LTB", "setting": "[8]", "result": 96.3, "unit": "%"}, {"measurement": "Vd", "setting": "[9]", "result": 6.9, "unit": "L/kg"}, {"measurement": "Vdu", "setting": "[9]", "result": 56.1, "unit": "L/kg"}, {"measurement": "Measured log I (ChemSpider)", "setting": "[10]", "result": "2.68-4.63"}, {"measurement": "volume of distribution described in the literature", "setting": "[11]", "result": "over 100 L/kg"}, {"measurement": "% AGP bound", "setting": "[12]", "result": 48.4, "unit": "%"}, {"measurement": "phospholipidosis", "setting": "[13]", "result": "causes phospholipidosis"}]}, {"smiles": "NC(=O)N1c2ccccc2C=Cc2ccccc21", "note": "[Carbamazepine]", "values": [{"measurement": "log k (HSA)", "setting": "[14]", "result": 0.5}, {"measurement": "% HSA", "setting": "[15]; calibration drugs, equilibrium dialysis literature % binding", "result": 75.0, "unit": "%"}, {"measurement": "% AGP", "setting": "[12]", "result": 65, "unit": "%"}, {"measurement": "log k (AGP)", "setting": "[16]", "result": 0.3}]}, {"smiles": "COc1cc2c(c(OC)c1OC)-c1ccc(OC)c(=O)cc1[C@@H](NC(C)=O)CC2", "note": "[Colchicine]", "values": [{"measurement": "CHI at pH 2.6", "setting": "[1]", "result": 43.9}, {"measurement": "CHI at pH 7.4", "setting": "[1]", "result": 45.0}, {"measurement": "CHI at pH 10.5", "setting": "[1]", "result": 43.9}]}, {"smiles": "O=C(O)Cc1ccccc1Nc1c(Cl)cccc1Cl", "note": "[Diclofenac]", "values": [{"measurement": "log k (AGP)", "setting": "[16]", "result": 0.2}]}, {"smiles": "CCN(CCO)CCCC(C)Nc1ccnc2cc(Cl)ccc12", "note": "(stereo not shown) [HCQ, hydroxy-chloroquine]", "values": [{"measurement": "chromatographic logD", "setting": "[17]; Gemini NX C-18(2) HPLC column, pH 7.4, C-18 gradient HPLC, racemate not resolved, read-out: CHI log D (pH 7.4)", "result": 0.66}, {"measurement": "chromatographic logP", "setting": "[17]; from pH 10.5 mobile phase, read-out: CHI log P", "result": 2.13}, {"measurement": "log k (IAM)", "setting": "[2]", "result": 2.5}, {"measurement": "fraction unbound", "setting": "[3]", "result": 0.181}, {"measurement": "% HSA bound", "setting": "[3]", "result": 84.9, "unit": "%"}, {"measurement": "log k (HSA)", "setting": "[3]", "result": 0.7}, {"measurement": "% AGP bound", "setting": "[4]", "result": 89.0, "unit": "%"}, {"measurement": "log k (AGP)", "setting": "[4]; standard 6 min IPA gradient, racemate", "result": 0.9}, {"measurement": "fraction unbound", "setting": "[5]", "result": 0.693}, {"measurement": "Estimated % plasma protein binding (PPB)", "setting": "[6]", "result": 93.4, "unit": "%"}, {"measurement": "fraction unbound", "setting": "[6]", "result": 0.07}, {"measurement": "%BTB", "setting": "[7]", "result": 97.6, "unit": "%"}, {"measurement": "est log k BB", "setting": "[7]", "result": 0.8}, {"measurement": "Kp at 0.1 h", "setting": "[7]", "result": 2.8}, {"measurement": "% LTB", "setting": "[8]", "result": 93.9, "unit": "%"}, {"measurement": "Vd", "setting": "[9]; human", "result": 5.8, "unit": "L/kg"}, {"measurement": "Vd", "setting": "[9]", "result": 5.1, "unit": "L/kg"}, {"measurement": "Vdu", "setting": "[9]", "result": 38.8, "unit": "L/kg"}, {"measurement": "Kpcell", "setting": "[18]", "result": 7.3}, {"measurement": "Phospholipidotic potential (CAD-likeness)", "setting": "[19]", "result": 73.6}, {"measurement": "volume of distribution described in the literature", "setting": "[11]", "result": "over 100 L/kg"}, {"measurement": "Vd", "setting": "[11]; healthy volunteers", "result": "above 4000 L/kg"}, {"measurement": "% HSA bound", "setting": "[15]; equilibrium dialysis method", "result": 40, "unit": "%"}, {"measurement": "% AGP bound", "setting": "[12]; equilibrium dialysis method", "result": 34, "unit": "%"}]}, {"smiles": "c1ccc2[nH]ccc2c1", "note": "[Indole]", "values": [{"measurement": "CHI at pH 2.6", "setting": "[1]", "result": 72.1}, {"measurement": "CHI at pH 7.4", "setting": "[1]", "result": 71.5}, {"measurement": "CHI at pH 10.5", "setting": "[1]", "result": 72.1}]}, {"smiles": "COc1ccc2c(c1)c(CC(=O)O)c(C)n2C(=O)c1ccc(Cl)cc1", "note": "[Indomethacin]", "values": [{"measurement": "log k (HSA)", "setting": "[14]", "result": 1.8}, {"measurement": "% AGP", "setting": "[12]", "result": 56, "unit": "%"}, {"measurement": "log k (AGP)", "setting": "[16]", "result": 0.1}]}]}
